Experimental data from patent publication US11155523B2, “Biphenyl compound as CCR2/CCR5 receptor antagonist” (Medshine Discovery Inc., priority 2016, dated 2021).

Experiments:
[1] = Comparative pharmacokinetics study in rats; assay type: in vivo, SD male rats; settings: rat; for clearance / half-life / bioavailability: male, Sprague-Dawley (SD), plasma; for clearance / half-life / Area Under a Curve (0-inf): intravenous injection 2 mg/kg; for bioavailability: oral 10 mg/kg vs intravenous 2 mg/kg; for Area Under a Curve (0-inf/0-last) / Peak time: oral 10 mg/kg; for Oral plasma system exposure (AUC0-inf) as multiple of the reference compound / Plasma clearance as percent of that of the reference compound: relative to Cenicriviroc
Method: Experimental Example 2: Comparative Pharmacokinetics Study in Rats
SD male rats were used as the test animals in this study. The drug concentrations in plasma of the rats by intravenous or oral administration of test compounds WX017, WX047, WX079, WX088 and reference compound at different time points were quantitatively determined by LC/MS/MS, which were used to evaluate the pharmacokinetic profile of the two test drugs in rats.
A clear solution of the test compound was injected into SD rats via the tail vein (overnight fasting, 7-10 weeks old), and the test compound was orally administered to the SD rats (overnight fasting, 7-10 weeks old). Approximately 200 μL of blood was collected from the jugular vein or tail vein of the animals 0.0833, 0.25, 0.5, 1, 2, 4, 6, 8 and 24 hours after administration, and was placed in an anticoagulant tube containing EDTA-K2. The plasma was collected by centrifugation at 3000 g for 15 minutes at 4° C. The plasma concentration was determined by LC-MS/MS. The pharmacokinetic parameters were calculated by the non-compartment model linear logarithmic trapezoidal method using WinNonlin™ Version 6.3 (Pharsight, Mountain View, Calif.) pharmacokinetic software.

CYP3A4 = target: T1, CYP3A4 (Homo sapiens, UniProt P08684); experiment: Inhibition of human liver microsomal CYP3A4 (midazolam probe); assay type: in vitro ADME; settings: human liver microsomes
T1 construct: from tissue; host or cells: human liver microsomes
Method: (§1) Experimental Example 4 Inhibition Effect on the Activity of Human Liver Microsomal Cytochrome P450 Isoezymes (CYP1A2, CYP2C9, CYP2C19, CYP2D6 and CYP3A4)
(§2) A total of 5 specific probe substrates for CYP's five isozymes, Phenacetin (CYP1A2), Diclofenac (CYP2C9), […] (S)-Mephenytoin, CYP2C19), Dextromethorphan (CYP2D6) and Midazolam (CYP3A4) were incubated with human liver microsomes and test compounds, respectively, and reduced nicotinamide adenine dinucleotide phosphate (NADPH) was added to initiate the reaction. After the reaction, the sample was processed and liquid chromatography tandem mass spectrometry (LC-MS/MS) was used to quantitatively detect the […] metabolites produced by the specific substrate, Acetaminophen and 4′-hydroxydiclofenac, 4′-hydroxymephenytoin, Dextrorphan and 1′-hydroxymidazolam, in order to calculate the corresponding half maximal inhibitory concentration (IC50).

[2] = Comparative pharmacokinetics study in cynomolgus monkeys; assay type: in vivo; settings: cynomolgus monkey
Excerpt: Experimental Example 3: Comparative Pharmacokinetics Study in Cynomolgus Monkeys
Male cynomolgus monkeys were used as the test animals in this study. The drug concentrations in plasma of the cynomolgus monkeys by intravenous or oral administration of test compound WX047 and reference compound at different time points were quantitatively determined by LC/MS/MS, which were used to evaluate the pharmacokinetic profile of the two test drugs in cynomolgus monkeys.
A clear solution of the test compound was injected into cynomolgus monkeys via t the cephalic or saphenous vein (overnight fasting, 2.5-7 kg), and the test compound was intragastrically administered to the cynomolgus monkeys (overnight fasting, 7-10 weeks old). Approximately 400 μL of blood was collected from the peripheral vein of the animals 0.0833, 0.25, 0.5, 1, 2, 4, 6, 8, 12 and 24 hours after administration, and transferred into an commercial centrifuge tube containing EDTA-K2*2H2O anticoagulation. The plasma was collected by centrifugation at 3000 g for 10 minutes at 4° C. The plasma concentration was determined by LC-MS/MS. The pharmacokinetic parameters were calculated by the non-compartment model linear logarithmic trapezoidal method using WinNonlin™ Version 6.3 (Pharsight, Mountain View, Calif.) pharmacokinetic software.

CYP1A2 = target: T2, CYP1A2 (Homo sapiens, UniProt P05177); experiment: Inhibition of human liver microsomal CYP1A2 (phenacetin probe); assay type: in vitro ADME; settings: human liver microsomes
T2 construct: from tissue; host or cells: human liver microsomes
T2 sequence (P05177 1-516): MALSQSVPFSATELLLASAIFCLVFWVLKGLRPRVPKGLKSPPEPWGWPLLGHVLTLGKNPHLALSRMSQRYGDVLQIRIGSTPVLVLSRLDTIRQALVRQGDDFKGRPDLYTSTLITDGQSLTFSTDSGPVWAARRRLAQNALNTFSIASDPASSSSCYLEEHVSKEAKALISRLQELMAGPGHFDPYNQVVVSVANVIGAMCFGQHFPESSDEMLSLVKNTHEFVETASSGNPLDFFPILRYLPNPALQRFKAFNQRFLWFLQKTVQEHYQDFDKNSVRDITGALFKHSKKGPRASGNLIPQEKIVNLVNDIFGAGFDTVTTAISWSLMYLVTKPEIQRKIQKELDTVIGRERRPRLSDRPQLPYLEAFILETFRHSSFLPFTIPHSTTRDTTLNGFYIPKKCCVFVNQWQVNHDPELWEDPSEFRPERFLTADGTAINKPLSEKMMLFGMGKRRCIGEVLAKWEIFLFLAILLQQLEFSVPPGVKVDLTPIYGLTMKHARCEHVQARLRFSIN
Method: as §1, §2

CYP2C9 = target: T3, CYP2C9 (Homo sapiens, UniProt P11712); experiment: Inhibition of human liver microsomal CYP2C9 (diclofenac probe); assay type: in vitro ADME; settings: human liver microsomes
T3 construct: from tissue; host or cells: human liver microsomes
Method: as §1, §2

CYP2C19 = target: T4, CYP2C19 (Homo sapiens, UniProt P33261); experiment: Inhibition of human liver microsomal CYP2C19 ((S)-mephenytoin probe); assay type: in vitro ADME; settings: human liver microsomes
T4 construct: from tissue; host or cells: human liver microsomes
Method: as §1, §2

CYP2D6 = target: T5, CYP2D6 (Homo sapiens, UniProt P10635); experiment: Inhibition of human liver microsomal CYP2D6 (dextromethorphan probe); assay type: in vitro ADME; settings: human liver microsomes
T5 construct: from tissue; host or cells: human liver microsomes
Method: as §1, §2

CCR5 = target: T6, CCR5 (Homo sapiens, UniProt P51681); experiment: CCR5 in vitro test: intracellular calcium signal detected by FLIPR; assay type: cell-based; settings: HEK293 cells expressing CCR5, agonist RANTES at EC80, calcium signal
T6 construct: expressed in transfected cells; host or cells: HEK293, clone C13, passage P4
Method: (§3) Experimental Example 1: CCR2/CCR5 In Vitro Test
(§4) The intracellular calcium signal was detected by FLIPR, and the IC50 value of the compound was used as an index to evaluate the inhibitory effect of the compound on CCR2 and CCR5 receptors.
(§5) 1. Cell line: The cells were inoculated and incubated in a 5% CO2 incubator at 37° C. overnight.
(§6) CCR2/CCR5 density: 1 M (20 k/well)
(§7) 2. Reagents: Fluo-4 Direct, (Invitrogen, Cat #F10471)
(§8) The compound was dissolved in DMSO to prepare a 10 mM solution, and the compound solution was placed in a nitrogen box.
(§9) Agonist reference compounds:
(§10) Preparation of probenecid in FLIPR assay buffer: 1 mL of FLIPR assay buffer was added to […] of probenecid to prepare a 250 mM solution, which is prepared fresh daily.
(§11) 2× (8 μM) Fluo-4 Direct™ Loading Buffer (per 10 mL) • Thaw a bottle of Fluo-4 Direct™ crystal (F10471). • Add 10 mL of FLIPR assay buffer to the vial. • Add 0.2 mL of probenecid to each 10 mL of Fluo-Direct. The final concentration of the assay was 2.5 mM. • Rotate it and place for >5 minutes (in absence of light). • Prepare fresh daily.
(§12) MCP-1 was diluted in FLIPR assay buffer 1:2 into 10 points, starting at 0.5 uM (final 100 nM). RANTES was diluted in FLIPR assay buffer 1:3 into 10 points, starting at 0.5 uM (final 100 nM). 20 uL of serially diluted compound buffer was added to each well of the DRC plate according to the compound plate map.
(§13) Standard compound was diluted in DMSO 1:3 into 11 points, starting at 1 mM. Test compound was diluted in DMSO 1:3 into 11 points, starting at 2 mM. 250 nL of compound solution was transferred into a cell plate using Echo (Greiner #781946).
(§14) (c) Take the cell plate out of the incubator, and gently dispense 20 uL of 2× Fluo-4 Direct wash-free loading buffer into a 384-well cell culture plate using a pipette. The final cell plate is 40 μL in volume.
(§15) (d) Incubate for 50 minutes at 37° C. under 5% CO2, and for 10 minutes at room temperature.
(§16) (e) Take the cell plate out of the incubator, and place it in FLIPR. Place the composite plate and the tip box in FLIPR.
(§17) (f) For DRC plate: • 1) Run the program on FLIPRTETRA. • 2) Read the fluorescent signal. • 3) Transfer 10 μL of compound from the DRC plate to the cell plate. • 4) Read the fluorescent signal. • 5) Calculate the “maximum−minimum” from Read 90 to the maximum allowed. Use FLIPR to calculate the EC80 value of each cell line. • 6) Prepare 5×EC80 concentration of the agonist reference compound.
(§18) (g) For the composite plate (1-add): • 1) Run the program on FLIPRTETRA. • 2) Transfer 10 μl, of 5×EC80 concentration of the agonist reference compound from the composite plate to the cell plate. • 3) Read the fluorescent signal. • 4) Calculate the “maximum−minimum” from Read 90 to the maximum allowed.
(§19) (h) Analyze the data using Prism, and calculate the IC50 value of the compound.

CCR2 = target: T7, CCR2 (Homo sapiens, UniProt P41597); experiment: CCR2 in vitro test: intracellular calcium signal detected by FLIPR; assay type: cell-based; settings: HEK293 cells expressing CCR2, agonist MCP-1 at EC80, calcium signal
T7 construct: expressed in transfected cells; host or cells: HEK293, clone C7, passage P6
Method: as §3, §4, §5, §6, §7, §8, §9, §10, §11, §12, §13, §14, §15, §16, §17, §18, §19

[3] = male, plasma, intravenous injection 1 mg/kg

T7 sequence (P41597 whole entry, species assumed): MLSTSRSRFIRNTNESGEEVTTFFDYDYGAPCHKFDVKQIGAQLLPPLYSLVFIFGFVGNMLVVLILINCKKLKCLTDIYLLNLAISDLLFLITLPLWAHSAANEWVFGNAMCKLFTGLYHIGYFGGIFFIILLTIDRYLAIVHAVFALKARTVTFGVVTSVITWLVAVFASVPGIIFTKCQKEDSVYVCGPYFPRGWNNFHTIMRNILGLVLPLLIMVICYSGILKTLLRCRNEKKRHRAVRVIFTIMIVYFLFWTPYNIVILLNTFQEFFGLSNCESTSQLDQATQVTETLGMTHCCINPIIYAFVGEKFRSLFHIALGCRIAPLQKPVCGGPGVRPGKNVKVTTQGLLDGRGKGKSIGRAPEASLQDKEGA
T6 sequence (P51681 whole entry, species assumed): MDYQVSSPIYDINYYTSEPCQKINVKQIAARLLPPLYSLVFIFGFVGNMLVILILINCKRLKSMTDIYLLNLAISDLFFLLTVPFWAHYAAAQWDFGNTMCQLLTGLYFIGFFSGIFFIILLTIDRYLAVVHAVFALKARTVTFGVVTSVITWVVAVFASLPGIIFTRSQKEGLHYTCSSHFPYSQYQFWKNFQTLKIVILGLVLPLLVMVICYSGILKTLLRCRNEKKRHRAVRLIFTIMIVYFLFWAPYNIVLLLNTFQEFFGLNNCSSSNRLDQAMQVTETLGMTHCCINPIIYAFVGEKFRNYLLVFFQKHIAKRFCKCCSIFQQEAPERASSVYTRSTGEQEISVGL
T1 sequence (P08684 whole entry): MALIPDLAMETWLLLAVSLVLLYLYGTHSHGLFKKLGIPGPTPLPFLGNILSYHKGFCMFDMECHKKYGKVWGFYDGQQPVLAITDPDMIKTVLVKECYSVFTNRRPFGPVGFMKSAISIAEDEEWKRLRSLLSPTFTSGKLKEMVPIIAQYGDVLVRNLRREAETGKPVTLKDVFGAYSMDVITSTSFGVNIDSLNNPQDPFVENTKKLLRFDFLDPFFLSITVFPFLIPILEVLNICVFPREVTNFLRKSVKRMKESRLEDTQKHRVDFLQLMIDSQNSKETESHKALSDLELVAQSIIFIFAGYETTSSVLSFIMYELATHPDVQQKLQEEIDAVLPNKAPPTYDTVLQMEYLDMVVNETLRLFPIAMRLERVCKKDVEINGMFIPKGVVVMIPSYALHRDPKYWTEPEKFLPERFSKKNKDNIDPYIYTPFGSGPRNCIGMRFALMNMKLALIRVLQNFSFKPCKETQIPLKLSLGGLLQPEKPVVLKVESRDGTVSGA
T5 sequence (P10635 whole entry): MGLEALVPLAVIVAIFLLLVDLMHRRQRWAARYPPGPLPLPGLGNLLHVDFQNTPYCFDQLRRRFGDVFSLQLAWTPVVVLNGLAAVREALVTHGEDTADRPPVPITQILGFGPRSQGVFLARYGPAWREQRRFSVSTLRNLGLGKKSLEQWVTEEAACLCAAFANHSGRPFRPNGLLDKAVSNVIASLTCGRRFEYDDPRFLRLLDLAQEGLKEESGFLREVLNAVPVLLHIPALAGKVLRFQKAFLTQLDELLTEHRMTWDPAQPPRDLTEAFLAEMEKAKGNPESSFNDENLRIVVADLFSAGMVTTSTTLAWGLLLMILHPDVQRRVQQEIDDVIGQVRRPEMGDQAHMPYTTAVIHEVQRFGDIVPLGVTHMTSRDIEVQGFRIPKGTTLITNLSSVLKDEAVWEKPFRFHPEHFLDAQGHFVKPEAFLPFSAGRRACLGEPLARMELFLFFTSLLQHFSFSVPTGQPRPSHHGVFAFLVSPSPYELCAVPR
T4 sequence (P33261 whole entry): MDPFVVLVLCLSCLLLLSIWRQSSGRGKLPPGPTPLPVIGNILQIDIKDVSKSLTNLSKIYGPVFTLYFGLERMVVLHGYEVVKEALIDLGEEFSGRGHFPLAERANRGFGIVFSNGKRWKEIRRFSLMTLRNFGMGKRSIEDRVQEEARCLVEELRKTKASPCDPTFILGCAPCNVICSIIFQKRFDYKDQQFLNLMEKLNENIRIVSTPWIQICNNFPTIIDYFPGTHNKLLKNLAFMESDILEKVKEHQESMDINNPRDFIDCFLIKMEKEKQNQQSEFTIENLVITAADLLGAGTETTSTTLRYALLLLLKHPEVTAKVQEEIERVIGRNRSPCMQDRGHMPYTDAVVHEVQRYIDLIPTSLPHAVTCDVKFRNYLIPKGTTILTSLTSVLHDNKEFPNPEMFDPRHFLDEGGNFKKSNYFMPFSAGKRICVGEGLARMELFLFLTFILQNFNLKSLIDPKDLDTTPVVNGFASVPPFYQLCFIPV
T3 sequence (P11712 whole entry): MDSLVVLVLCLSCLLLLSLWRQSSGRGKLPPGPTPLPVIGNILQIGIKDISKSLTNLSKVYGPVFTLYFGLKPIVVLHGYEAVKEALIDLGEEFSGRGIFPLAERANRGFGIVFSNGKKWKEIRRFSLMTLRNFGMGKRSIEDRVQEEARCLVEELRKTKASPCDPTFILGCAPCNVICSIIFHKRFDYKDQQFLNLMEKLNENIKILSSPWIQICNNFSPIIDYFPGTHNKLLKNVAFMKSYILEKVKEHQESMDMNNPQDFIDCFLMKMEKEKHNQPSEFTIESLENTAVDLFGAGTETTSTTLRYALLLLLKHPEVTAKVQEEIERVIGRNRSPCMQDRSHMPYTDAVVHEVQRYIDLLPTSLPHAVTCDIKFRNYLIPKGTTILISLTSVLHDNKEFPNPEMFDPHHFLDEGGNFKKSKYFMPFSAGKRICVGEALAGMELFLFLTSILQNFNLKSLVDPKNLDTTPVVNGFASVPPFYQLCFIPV

SMILES	clearance [1]	half-life [1]	bioavailability [1]	Area Under a Curve (0-inf) [1]	Area Under a Curve (0-inf/0-last) [1]	Peak time [1]	IC50 (CCR5)	IC50 (CCR2)	also measured
CCCCOCCOc1ccc(-c2ccc3c(c2)/C=C(/C(=O)Nc2ccc([S@@+]([O-])Cc4cncn4CCC)cc2)CCCN3CC(C)C)cc1 [(Cenicriviroc), Cenicriviroc, reference compound]	1.57 mL/min/kg	5.48 h	20.4%	31.344 µM·h	31.956 µM·h	4.0 h	–	–	Inhibitory effect on CYP3A4 (conclusion in words) (CYP3A4): weak inhibitory effect; IC50 (CYP3A4; probe midazolam): 5600 nM; Area Under a Curve (0-inf) ([2]; intravenous injection 1 mg/kg): 2.766 µM·h; Area Under a Curve (0-inf/0-last) ([2]; oral 3 mg/kg): 0.424 µM·h; Peak time ([2]; oral 3 mg/kg): 2.0 h; clearance [2, 3]: 8.74 mL/min/kg; half-life [2, 3]: 5.37 h; bioavailability ([2]; male, plasma, oral 3 mg/kg vs intravenous 1 mg/kg): 5.11%; IC50 (CYP1A2): > 50000 nM; IC50 (CYP2C9): > 50000 nM; IC50 (CYP2C19): > 50000 nM; IC50 (CYP2D6): > 50000 nM
CCCCOCCOc1ccc(-c2ccc(OC)c(/C=C/C(=O)Nc3ccc([S@@+]([O-])Cc4cncn4CCC)cc3)c2)cc1 [WX017]	0.4 mL/min/kg	3.69 h	48.9%	135.732 µM·h	331.778 µM·h	1.5 h	7.9 nM	13 nM	Oral plasma system exposure (AUC0-inf) as multiple of the reference compound [1]: 10.4 times; Plasma clearance as percent of that of the reference compound [1]: 25%
CCCCOCCOc1ccc(-c2ccc(OC(F)F)c(/C=C/C(=O)Nc3ccc([S@@+]([O-])Cc4c(C)ncn4CCC)cc3)c2)cc1 [WX082]	–	–	–	–	–	–	11.4 nM	53.4 nM	–
CCCCOCCOc1ccc(-c2ccc(OC)c(/C=C/C(=O)Nc3ccc([S@+]([O-])Cc4cncn4CCC)cc3)c2)cc1 [WX085]	–	–	–	–	–	–	5.6 nM	5.2 nM	–
CCCCOCCOc1ccc(-c2ccc(OC)c(/C=C/C(=O)Nc3ccc([S+]([O-])Cc4cnccc4CC)cc3)c2)cc1 (centres unmarked) [WX086]	–	–	–	–	–	–	1.8 nM	13 nM	–
CCCCOCCOc1ccc(-c2cc(F)c(OC)c(/C=C/C(=O)Nc3ccc([S@+]([O-])Cc4c(C)ncn4CC)cc3)c2)cc1 [WX088]	0.328 mL/min/kg	6.63 h	15.7%	150.423 µM·h	122.101 µM·h	3.0 h	4.3 nM	3.5 nM	Oral plasma system exposure (AUC0-inf) as multiple of the reference compound [1]: 3.8 times; Plasma clearance as percent of that of the reference compound [1]: 21%
CCCCOCCOc1ccc(-c2cc(C)c(OC)c(/C=C/C(=O)Nc3ccc([S@+]([O-])Cc4c(C)ncn4CC)cc3)c2)cc1 [WX090]	–	–	–	–	–	–	6.9 nM	5.5 nM	–
CCCCOCCOc1ccc(-c2ccc(F)c(/C=C/C(=O)Nc3ccc([S@+]([O-])Cc4c(C)ncn4CC)cc3)c2)cc1 [WX091]	–	–	–	–	–	–	4.4 nM	4.7 nM	–
CCCCOCCOc1ccc(-c2cc(C)cc(/C=C/C(=O)Nc3ccc([S@+]([O-])Cc4c(C)ncn4CC)cc3)c2)cc1 [WX092]	–	–	–	–	–	–	10.1 nM	3.9 nM	–
